{
  "source": "patent US20130123481A1",
  "about": "“MODIFIED NUCLEOSIDES, NUCLEOTIDES, AND NUCLEIC ACIDS, AND USES THEREOF” (MODERNA THERAPEUTICS, priority 2011, published 2013)",
  "key": {"[1]": {"biological_target": "T1, mutant T7 polymerase (Durascribe T7 Transcription kit) (Escherichia phage T7, UniProt P00573, Y639F)", "T1 construct": "purchased Epicentre, Madison, Wis; DS010925", "T1 sequence (P00573 whole entry Y639F)": "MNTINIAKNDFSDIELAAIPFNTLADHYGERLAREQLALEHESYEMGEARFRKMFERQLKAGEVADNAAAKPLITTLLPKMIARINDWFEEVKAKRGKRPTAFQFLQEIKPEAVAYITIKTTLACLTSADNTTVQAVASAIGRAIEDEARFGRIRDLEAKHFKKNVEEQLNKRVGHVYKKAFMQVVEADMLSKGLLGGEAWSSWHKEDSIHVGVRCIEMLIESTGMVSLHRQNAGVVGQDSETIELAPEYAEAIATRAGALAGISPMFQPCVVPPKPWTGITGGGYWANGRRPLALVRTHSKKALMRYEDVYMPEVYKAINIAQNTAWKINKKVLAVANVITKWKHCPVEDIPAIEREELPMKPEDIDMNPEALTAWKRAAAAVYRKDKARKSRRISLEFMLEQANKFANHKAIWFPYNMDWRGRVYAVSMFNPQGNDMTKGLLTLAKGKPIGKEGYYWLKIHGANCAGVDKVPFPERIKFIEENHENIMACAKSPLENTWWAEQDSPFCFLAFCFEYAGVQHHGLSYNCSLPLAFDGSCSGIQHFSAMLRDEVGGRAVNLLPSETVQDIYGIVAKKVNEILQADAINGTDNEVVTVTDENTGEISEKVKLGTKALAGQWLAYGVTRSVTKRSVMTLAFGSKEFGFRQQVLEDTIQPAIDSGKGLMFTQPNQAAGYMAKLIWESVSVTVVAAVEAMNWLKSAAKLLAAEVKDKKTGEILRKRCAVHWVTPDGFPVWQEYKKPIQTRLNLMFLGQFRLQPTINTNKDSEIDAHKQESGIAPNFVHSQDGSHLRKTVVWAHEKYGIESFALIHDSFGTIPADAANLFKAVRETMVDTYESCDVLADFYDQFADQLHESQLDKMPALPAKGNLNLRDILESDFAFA", "conditions": "Table 48 non-naturally occurring, in vitro transcription using mutant T7 polymerase", "description": "(§1) The luciferase and G-CSF modified mRNA were also subjected to an enzymatic capping reaction and each modified mRNA capping reaction was evaluated for yield by spectrophometic measurement (OD260) and correct size assessed using bioanalyzer."}, "wild-type T7 polymerase": {"biological_target": "wild-type T7 polymerase (Escherichia phage T7, UniProt P00573)", "sequence (P00573 whole entry)": "as the sequence (P00573 whole entry Y639F) above, with F639Y counted along it", "assay": "In Vitro Transcription with Wild-Type T7 Polymerase (transcription and capping yield)", "conditions": "Table 48 non-naturally occurring, Pass/Fail", "description": "as §1"}, "HeLa cells": {"tested_on": "HeLa cells", "assay": "In vitro Screening in HeLa Cells - luciferase (RLU)", "assay_type": "cell-based, human", "set-up": "key to Protein (Luc; HeLa): the protein production of HeLa is judged by “+,” “+/−” and “−”; the protein production of HeLa is judged by “+,” “+/−” and “−”; the protein production of HeLa is judged by “+,” “+/−” and “−”", "description": "The 2′Fluoro-modified mRNA were then transfected into HeLa cells to assess protein production in a cell context and the same mRNA were also assessed in a cell-free rabbit reticulocyte system. A control of unmodified luciferase (natural luciferase) was used for both transcription experiments, a control of untreated and mock transfected (Lipofectamine 2000 alone) were also analyzed for the HeLa transfection and a control of no RNA was analyzed for the rabbit reticulysates.\nFor the HeLa transfection experiments, the day before transfection, 20,000 HeLa cells (ATCC no. CCL-2; Manassas, Va.) were harvested by treatment with Trypsin-EDTA solution (LifeTechnologies, Grand Island, N.Y.) and seeded in a total volume of 100 ul EMEM medium (supplemented with 10% FCS and 1× Glutamax) per well in a 96-well cell culture plate (Corning, Manassas, Va.). The cells were grown at […] in 5% CO2 atmosphere overnight. […] Lipofectamine 2000 (LifeTechnologies, Grand Island, N.Y.) was used as transfection reagent and 0.2 ul were diluted in 10 ul final volume of OPTI-MEM. After […] of incubation at room temperature, both solutions were combined and incubated an additional 15 minute at room temperature. Then the 20 ul combined solution was added to the 100 ul cell culture medium containing the HeLa cells and incubated at room temperature. After 18 to 22 hours of incubation cells expressing luciferase were lysed with 100 ul of Passive Lysis Buffer (Promega, Madison, Wis.) according to manufacturer instructions. Aliquots of the lysates were transferred to white opaque polystyrene 96-well plates (Corning, Manassas, Va.) and combined with 100 ul complete luciferase assay solution (Promega, Madison, Wis.). The lysate volumes were adjusted or diluted until no more than 2 mio relative light units (RLU) per well were detected for the strongest signal producing samples and the RLUs for each chemistry tested are shown in Table 42. The plate reader was a BioTek Synergy H1 (BioTek, Winooski, Vt.). The background signal of the plates without reagent was about 200 relative light units per well.\nTo evaluate using of 2′fluoro-modified mRNA in combination with other modification a series of mRNA were transcribed using either wild-type T7 polymerase (non-fluoro-containing compounds) or using mutant T7 polymerases (fluyoro-containing compounds) as described in Example 86. All modified mRNA were tested by in vitro transfection in HeLa cells.\nAfter 18 to 22 hours of incubation cells expressing luciferase were lysed with 100 ul of Passive Lysis Buffer (Promega, Madison, Wis.) according to manufacturer instructions. Aliquots of the lysates were transferred to white opaque polystyrene 96-well plates (Corning, Manassas, Va.) and combined with 100 ul complete luciferase assay solution (Promega, Madison, Wis.). The lysate volumes were adjusted or diluted until no more than 2 mio relative light units (RLU) per well were detected for the strongest signal producing samples and the RLUs for each chemistry tested are shown in Table 44. The plate reader was a BioTek Synergy H1 (BioTek, Winooski, Vt.). The background signal of the plates without reagent was about 200 relative light units per well."}, "[2]": {"tested_on": "female BALB/C mice, interferon-alpha (IFN-alpha)", "conditions": "mouse, in vivo"}, "[3]": {"tested_on": "PBMC, interferon-alpha (IFN-alpha)", "assay": "2′Fluoro Chemistries in PBMC - IFN-alpha production", "assay_type": "cell-based, human", "conditions": "G-CSF modified mRNA, ELISA, average of 3 donors"}, "[4]": {"tested_on": "PBMC, tumor necrosis factor-alpha (TNF-alpha)", "assay": "2′Fluoro Chemistries in PBMC - TNF-alpha production", "assay_type": "cell-based, human", "conditions": "G-CSF modified mRNA, ELISA, average of 2 donors"}, "[5]": {"tested_on": "human PBMC, tumor necrosis factor alpha (TNF-alpha)"}, "female BALB/C mice": {"tested_on": "female BALB/C mice", "assay": "In Vivo Detection of Innate Immune Response Study - human G-CSF protein in serum", "conditions": "human G-CSF in mouse serum; I.M.; 8 hours after dosing", "description": "Blood is collected at 8 hours after dosing."}, "[6]": {"tested_on": "Rabbit Reticulocyte Lysate", "assay": "In Vitro Screening in Rabbit Reticulocyte Lysates - luciferase (RLU)", "assay_type": "biochemical", "conditions": "250 ng 2′-fluoro-containing luciferase mRNA, 60 minutes, 30° C., background about 160 RLU", "description": "The diluted luciferase was added to 40 ul of freshly prepared Rabbit Reticulocyte Lysate and the in vitro translation reaction was done in a standard 1.5 mL polypropylene reaction tube (Thermo Fisher Scientific, Waltham, Mass.) at 30° C. in a dry heating block. The translation assay was done with the Rabbit Reticulocyte Lysate (nuclease-treated) kit (Promega, Madison, Wis.) according to the manufacturer's instructions. The reaction buffer was supplemented with a one-to-one blend of provided amino acid stock solutions devoid of either Leucine or Methionine resulting in a reaction mix containing sufficient amounts of both amino acids to allow effective in vitro translation.\nAfter 60 minutes of incubation, the reaction was stopped by placing the reaction tubes on ice. […] The volumes of the in vitro translation reactions were adjusted or diluted until no more than 2 mio relative light units (RLUs) per well were detected for the strongest signal producing samples and the RLUs for each chemistry tested are shown in Table 29. The plate reader was a BioTek Synergy H1 (BioTek, Winooski, Vt.). […]\nThe 2′Fluoro-modified mRNA were then transfected into HeLa cells to assess protein production in a cell context and the same mRNA were also assessed in a cell-free rabbit reticulocyte system. […]"}, "[7]": {"tested_on": "female BALB/C mice, interferon-alpha (IFN-alpha)", "assay": "In Vivo Detection of Innate Immune Response Study - mouse IFN-alpha in serum"}},
  "note": "Where two headings read alike, the source gives them in different places.",
  "data": [
    {"molecule": "2′-F-adenosine", "values": [
      {"measurement": "IVT (G-CSF), second result **", "setting": "[1]", "result": "Fail/Fail**"},
      {"measurement": "IVT (Luc), second result **", "setting": "[1]", "result": "Pass"},
      {"measurement": "IVT (G-CSF), first result", "setting": "wild-type T7 polymerase; G-CSF mRNA in vitro transcription", "result": "Fail/Fail**"},
      {"measurement": "IVT (Luc), first result", "setting": "wild-type T7 polymerase; luciferase mRNA in vitro transcription", "result": "Fail"},
      {"measurement": "Protein (Luc; HeLa)", "setting": "HeLa cells; Table 48 non-naturally occurring, ** mutant T7 polymerase", "result": "−**"}
    ]},
    {"molecule": "CCOCc1nc2c(N)nc3ccccc3c2n1CC(C)(C)O", "note": "[Compound R-848]", "values": [
      {"measurement": "IFN-alpha expression", "setting": "[2]", "result": 40.97, "unit": "pg/mL"},
      {"measurement": "IFN-alpha: 3 Donor Average", "setting": "[3]", "result": 45, "unit": "pg/mL"},
      {"measurement": "TNF-alpha: 2 Donor Average (pg/ml)", "setting": "[4]", "result": "8,235 pg/ml"},
      {"measurement": "TNF-alpha: 3 Donor Average", "setting": "[5]", "result": 1477, "unit": "pg/mL"},
      {"measurement": "G-CSF protein", "setting": "female BALB/C mice", "result": 3.4, "unit": "pg/mL"}
    ]},
    {"molecule": "Natural Luciferase: natural luciferase mRNA (SEQ ID NO: 3), Cap1 [reference compound]", "values": [
      {"measurement": "RLU", "setting": "[6]", "result": "2,159,968 RLU"},
      {"measurement": "RLU", "setting": "HeLa cells; 83 ng 2′fluoro-containing luciferase mRNA, Lipofectamine 2000, HeLa cells", "result": "133,853.5 RLU"},
      {"measurement": "RLU", "setting": "HeLa cells; 83 ng luciferase mRNA with combination of modifications, HeLa cells, 18 to 22 hours, background about 200 RLU", "result": "30,801 RLU"}
    ]},
    {"molecule": "GCSF mRNA unmod: G-CSF mRNA (SEQ ID NO: 1) unmodified, 5′ cap of Cap1 (nucleic acid, listed as Homo Sapiens, Cap1) GGGAAAUAAGAGAGAAAAGAAGAGUAAGAAGAAAUAUAAGAGCCACCAUGGCCGGUCCCGCGACCCAAAGCCCCAUGAAACUUAUGGCCCUGCAGUUGCUGCUUUGGCACUCGGCCCUCUGGACAGUCCAAGAAGCGACUCCUCUCGGACCUGCCUCAUCGUUGCCGCAGUCAUUCCUUUUGAAGUGUCUGGAGCAGGUGCGAAAGAUUCAGGGCGAUGGAGCCGCACUCCAAGAGAAGCUCUGCGCGACAUACAAACUUUGCCAUCCCGAGGAGCUCGUACUGCUCGGGCACAGCUUGGGGAUUCCCUGGGCUCCUCUCUCGUCCUGUCCGUCGCAGGCUUUGCAGUUGGCAGGGUGCCUUUCCCAGCUCCACUCCGGUUUGUUCUUGUAUCAGGGACUGCUGCAAGCCCUUGAGGGAAUCUCGCCAGAAUUGGGCCCGACGCUGGACACGUUGCAGCUCGACGUGGCGGAUUUCGCAACAACCAUCUGGCAGCAGAUGGAGGAACUGGGGAUGGCACCCGCGCUGCAGCCCACGCAGGGGGCAAUGCCGGCCUUUGCGUCCGCGUUUCAGCGCAGGGCGGGUGGAGUCCUCGUAGCGAGCCACCUUCAAUCAUUUUUGGAAGUCUCGUACCGGGUGCUGAGACAUCUUGCGCAGCCGUGAAGCGCUGCCUUCUGCGGGGCUUGCCUUCUGGCCAUGCCCUUCUUCUCUCCCUUGCACCUGUACCUCUUGGUCUUUGAAUAAAGCCUGAGUAGGAAG", "values": [
      {"measurement": "PC Ratio", "setting": "[7]; G-CSF protein / IFN-alpha in mouse serum", "result": 9},
      {"measurement": "IFN-alpha expression", "setting": "[7]; mouse IFN-alpha in serum, I.M., 8 hours after dosing", "result": 67.01, "unit": "pg/mL"},
      {"measurement": "G-CSF protein", "setting": "female BALB/C mice", "result": 605.6, "unit": "pg/mL"}
    ]}
  ]
}
